Reference: patent publication US20240383865A1, “HIGH-ENERGY-VIOLET-ABSORBING VINYLIC MONOMERS” (Alcon Inc., priority 2023, published 2024)
≈ marks a conversion by molar mass, not a printed value.

How the values were obtained:
Type in all cases: physicochemical
[1] = Solubility of HEVL-absorbing vinylic monomers in 1-propanol
Description: This example illustrates the correlation between the melting point and solubility of HEVL-absorbing vinylic monomers of
As anticipated, solubility in 1-propanol is improved, reaching >4.0 mg/ml (Table 1).

[2] = UV/visible absorption spectra of dilute solutions (40 ppm, 1 cm cuvette); conditions: for UV/visible absorption profiles of UV28 and UV35 compared: 40 ppm, FIG. 3
[3] = Dissolution of benzotriazole monomer in lens formulations; conditions: for Dissolution in Lightstream formulation: formulations 6-1 (UV28) and 6-2 (UV35), mixing at room temperature then 40° C.; for Dissolution in thermally cured formulations: formulations 6-3 (UV28) and 6-4 (UV35), mixed at room temperature 1-2 hours
Description: All formulations in the amount of 10 g are mixed at room temperature for 1-2 hours. Following initial mixing, Lightstream formulations (6-1 and 6-2) are mixed for an additional 1-2 hours at 40° C. […] Both benzotriazoles-UV28 and UV35 dissolve in thermally cured formulations (6-3 and 6-4). Room temperature and refrigerated (3° C.) conditions are tested.

[4] = Absorption edge of germanium photoinitiators

SMILES | Solubility in PrOH [1] [µg/mL] | solubility ([1]; organic solvent or mixture, read-out: Solubility in PrOH) [µg/mL] | UV/visible absorption profiles of UV28 and UV35 compared [2] | Dissolution in Lightstream formulation [3] | Dissolution in thermally cured formulations [3] | Absorption edge [4] [nm] | Absorption Peak ([2]; 40 ppm in 1-propanol) [nm]
C=C(C)C(=O)OCCOCCOc1cc(-n2nc3ccc(Cl)cc3n2)c(O)c(C(C)(C)C)c1 [UV35, 2-propenoic acid, 2-methyl-, 2-[2-[3-(5-chloro-2H-benzotriazol-2-yl)-5-(1,1-dimethylethyl)-4-hydroxyphenoxy]ethoxy]ethyl ester] | >4000 | > 4000 | equivalent | dissolves completely | dissolve |  | 
C[CH2][Ge]([CH2]C)([C](=O)c1ccc(OC)cc1)[C](=O)c1ccc(OC)cc1 [BMBDE-Ge, Bis(4-methoxybenzoyl)diethylgermanium] |  |  |  |  |  | 470 | 
CCc1ccccc1[C](=O)[Ge]([C](=O)c1ccccc1CC)([C](=O)c1ccccc1CC)[C](=O)c1ccccc1CC [TEB-Ge, tetrakis(2-ethylbenzoyl)-germanium] |  |  |  |  |  | 490 | 
C=C(C)C(=O)OCCCOc1cc(-n2nc3ccc(Cl)cc3n2)c(O)c(C(C)(C)C)c1 [UV28, 2-{2′-Hydroxy-3′-tert-butyl-5′-[3′-methacryloyloxypropoxy]phenyl}-5-chloro-2H-benzotriazole, reference compound] | 1500 (≈ 3.38 mM) |  | equivalent | does not dissolve | dissolve |  | 364
